What was measured:
Assay type in all cases: in vivo
dystrophin = test: Dystrophin in tibialis anterior muscle of mdx mice by immunohistochemistry; details: treated for 14 weeks from 6 weeks of age, prednisone 1.5 mg/kg per day, ibuprofen 25 mg/kg per day, PBMT 3 times a week, FIG. 18
Procedure: Mice were randomly divided into 7 different experimental groups: Wild Type (WT), Placebo-control (mdx mice), Prednisone (mdx mice), NSAID (mdx mice), […], and PBMT+NSAID (mdx mice). Prednisone (glucocorticoid) treatment was administered to animals daily with a dose of 1.5 mg/kg per day; NSAID treatment with ibuprofen was also administered to animals daily with a dose of 25 mg/kg per day. PBMT was performed employing a cluster probe (Multi Radiance Medical, Solon, Ohio) with 9 diodes (1 super-pulsed laser diode (905 nm), four LED diodes (875 nm), and 4 LED diodes (650 nm). PBMT was applied 3 times a week with direct contact to the animal's skin on hindlimb at a single point (tibialis anterior muscle—bilaterally). For combined treatments, each modality was applied as described previously. All treatments were performed during 14 weeks and started with animals at 6 weeks of age. The analysis consisted of muscle morphology, dystrophin through itntnunohistochetnistry and functional performance.

mdx mice [1] = test: Functional performance assessment in mdx mice; details: treated for 14 weeks from 6 weeks of age, FIG. 19
Procedure: The PBMT was analyzed using a functional performance evaluation protocol. The functional performance evaluation protocol included the animal climbing stairs with the following dimensions (1×0.09 m, distance between the steps of 0.5 cm and)80° using the animal's body weight (the protocol began with the animal's familiarization, in two sessions with a 24-h interval between the sessions). The aim of the sessions was to teach the mouse to move up the steps and consisted of three repetitions to the top, with a 60 s interval to rest. If necessary, a clamp stimulus for the animal to start moving was applied. After this familiarization, the assessments were performed before the treatments begin and 24-h after the last treatment, in order to evaluate how many times each mouse was able to climb up the stairs until the animal came to fatigue. Fatigue was identified when the animal could no longer perform the activity.
(§1) Mice were randomly divided into 7 different experimental groups: Wild Type (WT), Placebo-control (mdx mice), Prednisone (mdx mice), NSAID (mdx mice), […], and PBMT+NSAID (mdx mice). Prednisone (glucocorticoid) treatment was administered to animals daily with a dose of 1.5 mg/kg per day; NSAID treatment with ibuprofen was also administered to animals daily with a dose of 25 mg/kg per day. […]

mdx mice [2] = test: Skeletal muscle tissue morphology (histological sections, HE) in mdx mice; details: treated for 14 weeks from 6 weeks of age, tibialis anterior muscle, FIGS. 13-17
Procedure: The tibialis anterior muscles of the animal's hind paw were collected and stored in 10% buffered formalin for histological processing; then, hematoxylin and eosin staining was performed in a routine method. Slides were photographed, and the morphology of the skeletal striated muscle fibers was analyzed (Eclipse E-200; Nikon, Tokyo, Japan). Images of all groups were obtained using the 400x magnification. The images were presented with a similar photographic pattern.
as §1

CC(C)Cc1ccc(C(C)C(=O)O)cc1 (stereo not shown) [NSAID, ibuprofen] was tested, and the “dystrophin compared to the placebo-control group” value (dystrophin) was “no significant increase in dystrophin”.
For C[C@]12C=CC(=O)C=C1CC[C@@H]1[C@@H]2C(=O)C[C@@]2(C)[C@H]1CC[C@]2(O)C(=O)CO [Prednisone], the “muscular function compared to the placebo-control group” value (mdx mice [1]) was “improved muscular function”, the “dystrophin compared to the placebo-control group” value (dystrophin) was “increased dystrophin” and the “morphological aspects of skeletal muscle” value (mdx mice [2]) was “improvement in the morphological aspects of skeletal muscle”.

— patent publication US20200376291A1, “PHOTOBIOMODULATION THERAPY TO DELAY DYSTROPHY PROGRESSION” (Multi Radiance Medical, priority 2017, published 2020)
